Data on 22 compounds can be found in patent US20140005163A1 (NOVARTIS AG, priority 2010, published 2014).

A value given as a limit tells only on which side of the number the result lay.

Experiment [1] deals with PKB Ser473 phosphorylation in Rat1-myr-HA-p110 alpha cells. Put plainly: Reverse protein array assay, PKB Ser473 phosphorylation in Rat1-myr-p110 alpha cells. The format is cell-based. The settings on record: 0.5 h, pAkt Ser473, 30 minutes compound incubation, read-out: p-PKB IC50. Put shortly: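 Rat1 cells expressing myristoylated HA-tagged p110 alpha, beta or delta were plated for at least 20 h, then exposed to 8-step serial compound dilutions (0.2% DMSO final) for 30 min at 37 °C. Lysates were spotted at four dilutions on protein microarrays, and relative fluorescence intensity of phospho-Ser473 PKB was calculated.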

Another experiment addresses T1, PI3K beta (Homo sapiens, UniProt P42338).
T1 construct: for the full-length p110-b subunit are generated and fused by overlapping PCR; p85(iSH2) fusion partner (see partner chain) (N); His tag (C); made in house; host or cells: baculovirus; Tn5 (Trichoplusia ni) or TiniPro insect cells
Nature of the experiment: PI3K beta kinase assay (Kinase-Glo luminescence). Format: biochemical. In a few lines:
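Residual ATP after a 60 min room-temperature reaction is quantified by Kinase-Glo luminescence. Enzyme: 25 nM BV-949 (p85 iSH2–linker–full-length p110β); substrates 1 μM ATP, 10 μg/mL PI; buffer Tris pH 7.5, MgCl2, NaCl, CHAPS, DTT. Eight concentrations per compound, four-parameter logistic IC50.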
For orientation: Kinase-Glo reads ATP consumption through a luciferase reaction.

Another experiment concerns the target T2, mTOR (Homo sapiens, UniProt P42345).
T2 construct: purchased Invitrogen Corporation (Carlsbad/CA, USA) PV4753
Put plainly: Biochemical assay for m-TOR by TR-FRET. The note with it: 8 μM ATP, 400 nM GFP-4EBP1, 0.5 nM mTOR. In a few lines: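 TR-FRET detection of pThr46 on GFP-4EBP1 (400 nM final) using Tb3+-labelled antibody (0.5 nM), added with EDTA to stop reactions. Reactions ran at rt with 0.5 nM mTOR and 8 μM ATP (final) in HEPES pH 7.5 buffer containing 10 mM MnCl2.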
(In TR-FRET formats the signal depends on donor and acceptor labels being close together.)

T1 sequence (P42338 with tags, fused parts or gaps limits assumed): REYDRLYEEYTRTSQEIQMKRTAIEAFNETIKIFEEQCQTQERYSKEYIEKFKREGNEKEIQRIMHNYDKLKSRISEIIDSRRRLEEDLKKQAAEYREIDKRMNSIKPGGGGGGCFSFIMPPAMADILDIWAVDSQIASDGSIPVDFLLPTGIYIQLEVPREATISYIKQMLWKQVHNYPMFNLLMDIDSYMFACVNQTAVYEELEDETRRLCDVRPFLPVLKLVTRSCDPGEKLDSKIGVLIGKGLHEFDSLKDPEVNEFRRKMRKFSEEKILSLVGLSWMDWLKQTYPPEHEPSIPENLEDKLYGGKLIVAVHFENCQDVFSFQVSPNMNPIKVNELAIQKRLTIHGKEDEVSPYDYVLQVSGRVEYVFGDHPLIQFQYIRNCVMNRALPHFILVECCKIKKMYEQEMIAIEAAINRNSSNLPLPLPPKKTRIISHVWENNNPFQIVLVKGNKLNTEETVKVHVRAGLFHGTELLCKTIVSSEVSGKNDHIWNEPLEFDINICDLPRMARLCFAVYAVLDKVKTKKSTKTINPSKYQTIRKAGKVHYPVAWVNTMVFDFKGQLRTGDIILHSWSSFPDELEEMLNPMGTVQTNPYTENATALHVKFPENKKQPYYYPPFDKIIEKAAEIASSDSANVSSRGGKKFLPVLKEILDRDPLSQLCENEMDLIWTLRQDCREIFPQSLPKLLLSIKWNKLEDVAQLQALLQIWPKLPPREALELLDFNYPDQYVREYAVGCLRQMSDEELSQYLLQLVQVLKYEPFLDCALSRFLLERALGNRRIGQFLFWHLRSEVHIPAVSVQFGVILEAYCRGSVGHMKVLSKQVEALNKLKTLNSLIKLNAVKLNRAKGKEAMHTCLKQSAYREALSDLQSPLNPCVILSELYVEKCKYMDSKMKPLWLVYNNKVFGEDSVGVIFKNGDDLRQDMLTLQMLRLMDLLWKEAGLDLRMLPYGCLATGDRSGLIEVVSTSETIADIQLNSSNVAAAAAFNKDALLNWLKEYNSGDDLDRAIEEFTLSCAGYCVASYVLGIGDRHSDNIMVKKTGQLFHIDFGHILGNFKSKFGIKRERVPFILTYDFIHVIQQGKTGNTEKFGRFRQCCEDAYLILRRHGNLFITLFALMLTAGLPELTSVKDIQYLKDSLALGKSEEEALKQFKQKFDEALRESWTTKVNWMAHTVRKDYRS
T2 sequence (P42345 1360-2549 limits assumed): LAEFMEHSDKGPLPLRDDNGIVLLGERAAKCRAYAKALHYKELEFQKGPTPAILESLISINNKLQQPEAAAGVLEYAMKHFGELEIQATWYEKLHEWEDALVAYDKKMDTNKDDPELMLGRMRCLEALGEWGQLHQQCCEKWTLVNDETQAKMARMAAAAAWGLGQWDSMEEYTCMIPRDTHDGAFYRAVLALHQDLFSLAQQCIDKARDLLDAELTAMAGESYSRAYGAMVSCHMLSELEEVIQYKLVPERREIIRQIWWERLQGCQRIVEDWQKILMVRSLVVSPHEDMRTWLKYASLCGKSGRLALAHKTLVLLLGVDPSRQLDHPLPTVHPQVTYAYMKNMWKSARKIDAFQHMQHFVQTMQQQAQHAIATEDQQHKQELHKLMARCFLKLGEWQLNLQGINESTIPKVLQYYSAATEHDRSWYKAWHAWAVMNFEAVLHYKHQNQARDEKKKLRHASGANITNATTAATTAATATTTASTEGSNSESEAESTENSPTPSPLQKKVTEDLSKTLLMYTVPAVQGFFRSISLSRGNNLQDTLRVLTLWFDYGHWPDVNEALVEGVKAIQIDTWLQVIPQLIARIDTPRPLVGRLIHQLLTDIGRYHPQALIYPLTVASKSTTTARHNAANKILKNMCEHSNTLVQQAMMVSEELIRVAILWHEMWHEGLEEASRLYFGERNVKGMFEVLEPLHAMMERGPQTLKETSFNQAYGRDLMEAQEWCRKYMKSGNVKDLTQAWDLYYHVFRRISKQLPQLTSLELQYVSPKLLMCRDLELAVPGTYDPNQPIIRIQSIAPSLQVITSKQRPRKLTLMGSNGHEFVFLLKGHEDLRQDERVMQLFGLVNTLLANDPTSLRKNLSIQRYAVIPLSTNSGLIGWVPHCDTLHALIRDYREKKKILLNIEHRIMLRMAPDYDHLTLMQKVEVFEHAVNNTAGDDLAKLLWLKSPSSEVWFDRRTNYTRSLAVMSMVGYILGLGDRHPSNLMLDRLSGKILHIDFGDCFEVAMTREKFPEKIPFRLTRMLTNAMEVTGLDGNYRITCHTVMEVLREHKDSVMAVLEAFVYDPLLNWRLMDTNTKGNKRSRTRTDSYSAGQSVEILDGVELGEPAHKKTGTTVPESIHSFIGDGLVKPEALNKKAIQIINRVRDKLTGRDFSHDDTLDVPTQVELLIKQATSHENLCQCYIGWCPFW

Take `COc1ncc(-c2ccc3ncc4c(c3c2)n(-c2cn(C)nc2Cl)c(=O)n4C)cn1` [Example 17.3, 1-(3-Chloro-1-methyl-1H-pyrazol-4-yl)-8-(2-methoxy-pyrimidin-5-yl)-3-methyl-1,3-dihydro-imidazo[4,5-c]quinolin-2-one]: the results for the IC50 (in experiment [1]; on PI3K beta; on mTOR) were 21 nM, 37 nM and 12 nM, respectively.
`Cc1nn(C)cc1-n1c(=O)n(C)c2cnc3ccc(-c4ccc(N)nc4)cc3c21` [Example 23.1, 8-(6-Amino-pyridin-3-yl)-1-(1,3-dimethyl-1H-pyrazol-4-yl)-3-methyl-1,3-dihydro-imidazo[4,5-c]quinolin-2-one]: the IC50 – broadly, the concentration at which inhibition is half-maximal – in experiment [1] is 13 nM; on PI3K beta it was 41 nM; at mTOR, 4 nM.
On to `Cc1nn(C(C)C)cc1-n1c(=O)n(C)c2cnc3ccc(-c4ccc(N)nc4)cc3c21` [Example 23.2, 8-(6-Amino-pyridin-3-yl)-1-(1-isopropyl-3-methyl-1H-pyrazol-4-yl)-3-methyl-1,3-dihydro-imidazo[4,5-c]quinolin-2-one], for which the IC50 worked out at 11 nM in experiment [1], 197 nM at PI3K beta and 7 nM at mTOR.
On to `CCOc1ccc(-c2ccc3ncc4c(c3c2)n(-c2c(C)nn(C)c2C)c(=O)n4C)cc1OC` [Example 29.2, 8-(4-Ethoxy-3-methoxy-phenyl)-3-methyl-1-(1,3,5-trimethyl-1H-pyrazol-4-yl)-1,3-dihydro-midazo[4,5-c]quinolin-2-one], for which the IC50 in experiment [1] turned out to be 50 nM; on PI3K beta it was 167 nM; on mTOR it was 778 nM.
Regarding `COCCOc1ccc(-c2ccc3ncc4c(c3c2)n(-c2cn(C)nc2C)c(=O)n4C)cc1OC` [Example 30.1, 1-(1,3-Dimethyl-1H-pyrazol-4-yl)-8-[3-methoxy-4-(2-methoxy-ethoxy)-phenyl]-3-methyl-1,3-dihydro-imidazo[4,5-c]quinolin-2-one], the results for the IC50 (in experiment [1]; on PI3K beta; on mTOR) were 30 nM, 157 nM and 52 nM, respectively.
Consider `CNC(=O)c1ccc(-c2ccc3ncc4c(c3c2)n(-c2cn(C)nc2C)c(=O)n4C)cc1` [Example 43.1, 4-[1-(1,3-Dimethyl-1H-pyrazol-4-yl)-3-methyl-2-oxo-2,3-dihydro-1H-imidazo[4,5-c]quinolin-8-yl]-N-methyl-benzamide], for which the results for the IC50 (in experiment [1]; at PI3K beta; on mTOR) were 14 nM, 190 nM and under 3 nM, respectively.
In the case of `Cc1nn(C)cc1-n1c(=O)n(C)c2cnc3ccc(-c4cncc(N)c4)cc3c21` [Example 45.1, 8-(5-Amino-pyridin-3-yl)-1-(1,3-dimethyl-1H-pyrazol-4-yl)-3-methyl-1,3-dihydro-imidazo[4,5-c]quinolin-2-one], the values for the IC50 (in experiment [1]; at PI3K beta; on mTOR) were 60 nM, 47 nM and 7 nM, respectively.
For `CCOc1ncc(-c2ccc3ncc4c(c3c2)n(-c2cn(C)nc2C)c(=O)n4C)cn1` [Example 52, 1-(1,3-Dimethyl-1H-pyrazol-4-yl)-8-(2-ethoxy-pyrimidin-5-yl)-3-methyl-1,3-dihydro-imidazo[4,5-c]quinolin-2-one], the IC50 in experiment [1] worked out at 6 nM; on PI3K beta, 343 nM; at mTOR, 74 nM.
For the compound `COCc1cncc(-c2ccc3ncc4c(c3c2)n(-c2cn(C)nc2Cl)c(=O)n4C)c1` [Example 54.2, 1-(3-Chloro-1-methyl-1H-pyrazol-4-yl)-8-(5-methoxymethyl-pyridin-3-yl)-3-methyl-1,3-dihydro-imidazo[4,5-c]quinolin-2-one], the values for the IC50 (in experiment [1]; on PI3K beta; on mTOR) were 42 nM, 51 nM and 94 nM, respectively.
Turning to `CCOc1cncc(-c2ccc3ncc4c(c3c2)n(-c2cn(C)nc2C)c(=O)n4C)c1` [Example 56.1, 1-(1,3-Dimethyl-1H-pyrazol-4-yl)-8-(5-ethoxy-pyridin-3-yl)-3-methyl-1,3-dihydro-imidazo[4,5-c]quinolin-2-one], the IC50 in experiment [1] is 16 nM; at PI3K beta it was 6 nM; at mTOR, 15 nM.
For the compound `CCOc1cncc(-c2ccc3ncc4c(c3c2)n(-c2c(C)cnn2C)c(=O)n4C)c1` [Example 56.5, 1-(2,4-Dimethyl-2H-pyrazol-3-yl)-8-(5-ethoxy-pyridin-3-yl)-3-methyl-1,3-dihydro-imidazo[4,5-c]quinolin-2-one], the IC50 is 846 nM in experiment [1], 193 nM on PI3K beta and 763 nM at mTOR.
Consider `CCn1cc(-n2c(=O)n(C)c3cnc4ccc(-c5cncc(OC(C)C)c5)cc4c32)c(C)n1` [Example 58.4, 1-(1-Ethyl-3-methyl-1H-pyrazol-4-yl)-8-(5-isopropoxy-pyridin-3-yl)-3-methyl-1,3-dihydro-imidazo[4,5-c]quinolin-2-one], for which the results for the IC50 (in experiment [1]; on PI3K beta; at mTOR) were 25 nM, 29 nM and 31 nM, respectively.
Take `COCCOc1cncc(-c2ccc3ncc4c(c3c2)n(-c2cn(C)nc2C)c(=O)n4C)c1` [Example 59.1, 1-(1,3-Dimethyl-1H-pyrazol-4-yl)-8-[5-(2-methoxy-ethoxy)-pyridin-3-yl]-3-methyl-1,3-dihydro-imidazo[4,5-c]quinolin-2-one]: the IC50 in experiment [1] stood at 126 nM; on PI3K beta it was 89 nM; at mTOR, 96 nM.
For `Cc1nn(C)cc1-n1c(=O)n(C)c2cnc3ccc(-c4cncc(OCC5CC5)c4)cc3c21` [Example 61, 8-(5-Cyclopropylmethoxy-pyridin-3-yl)-1-(1,3-dimethyl-1H-pyrazol-4-yl)-3-methyl-1,3-dihydro-imidazo[4,5-c]quinolin-2-one], the IC50 came to 13 nM in experiment [1], 25 nM on PI3K beta and 65 nM on mTOR.
`COCCn1c(=O)n(C)c2ncc(-c3ccc4ncc5c(c4c3)n(-c3cn(C)nc3C)c(=O)n5C)cc21` [Example 69, 1-(1,3-Dimethyl-1H-pyrazol-4-yl)-8-[1-(2-methoxy-ethyl)-3-methyl-2-oxo-2,3-dihydro-1H-imidazo[4,5-b]pyridin-6-yl]-3-methyl-1,3-dihydro-imidazo[4,5-c]quinolin-2-one]: the IC50 in experiment [1] worked out at 755 nM; on PI3K beta, 129 nM; at mTOR, 639 nM.
As to `Cc1nn(C)c(C)c1-n1c(=O)n(C)c2cnc3ccc(-c4cnc(N)nc4)cc3c21` [Example 81.2, 8-(2-Amino-pyrimidin-5-yl)-3-methyl-1-(1,3,5-trimethyl-1H-pyrazol-4-yl)-1,3-dihydro-imidazo[4,5-c]quinolin-2-one], the IC50 in experiment [1] was 220 nM; at PI3K beta, 281 nM; on mTOR, 324 nM.
As for `CCOc1cc(-c2ccc3ncc4c(c3c2)n(-c2cn(C)nc2C)c(=O)n4C)cnc1C` [Example 85.1, 1-(1,3-Dimethyl-1H-pyrazol-4-yl)-8-(5-ethoxy-6-methyl-pyridin-3-yl)-3-methyl-1,3-dihydro-imidazo[4,5-c]quinolin-2-one], the results for the IC50 (in experiment [1]; at PI3K beta; at mTOR) were under 5 nM, 12 nM and 17 nM, respectively.
Take `Cc1ncc(-c2ccc3ncc4c(c3c2)n(-c2cn(C)nc2Cl)c(=O)n4C)cc1N` [Example 88.1, 8-(5-Amino-6-methyl-pyridin-3-yl)-1-(3-chloro-1-methyl-1H-pyrazol-4-yl)-3-methyl-1,3-dihydro-imidazo[4,5-c]quinolin-2-one]: the IC50 is under 5 nM in experiment [1], 28 nM on PI3K beta and 8 nM at mTOR.
As for `CCOc1cc(-c2ccc3ncc4c(c3c2)n(-c2cn(C)nc2C)c(=O)n4C)ccn1` [Example 91, 1-(1,3-Dimethyl-1H-pyrazol-4-yl)-8-(2-ethoxy-pyridin-4-yl)-3-methyl-1,3-dihydro-imidazo[4,5-c]quinolin-2-one], the IC50 in experiment [1] was found to be 234 nM; on PI3K beta, 409 nM; at mTOR, 512 nM.
For `COc1ccc(-c2ccc3ncc4c(c3c2)n(-c2cn(CCO)nc2C)c(=O)n4C)cn1` [Example 103.1, 1-[1-(2-Hydroxy-ethyl)-3-methyl-1H-pyrazol-4-yl]-8-(6-methoxy-pyridin-3-yl)-3-methyl-1,3-dihydro-imidazo[4,5-c]quinolin-2-one], the IC50 came out at 47 nM in experiment [1], 101 nM on PI3K beta and 21 nM at mTOR.
Consider `CCOc1ccc(-c2ccc3ncc4c(c3c2)n(-c2cn(CCO)nc2C)c(=O)n4C)cn1` [Example 103.2, 8-(6-Ethoxy-pyridin-3-yl)-1-[1-(2-hydroxy-ethyl)-3-methyl-1H-pyrazol-4-yl]-3-methyl-1,3-dihydro-imidazo[4,5-c]quinolin-2-one], for which the IC50 in experiment [1] was found to be 7 nM; on PI3K beta, 332 nM; on mTOR, 22 nM.
Take `CCOc1ccc(-c2ccc3ncc4c(c3c2)n(-c2cn(CC(=O)N3CCC3)nc2C)c(=O)n4C)cn1` [Example 138, 1-[1-(2-Azetidin-1-yl-2-oxo-ethyl)-3-methyl-1H-pyrazol-4-yl]-8-(6-ethoxy-pyridin-3-yl)-3-methyl-1,3-dihydro-imidazo[4,5-c]quinolin-2-one]: the IC50 in experiment [1] was found to be 36 nM; at PI3K beta it was 377 nM; on mTOR, 10 nM.
